Reference: patent publication US20230321462A1, “Method for Improving Olfactory Sensitivity” (Kao Corporation, priority 2019, published 2023)

What was measured:
[1] = molecular target: T1, OR10G4 (Homo sapiens, UniProt Q8NGN3); experiment: Luciferase reporter gene assay, response of OR10G4 to odor substances; type: cell-based; details: OR10G4-expressing HEK293 cells, luciferase fold increase, FIG. 1
T1 construct: Flag-Rho tag (N); expressed in transfected cells; host or cells: HEK293
T1 sequence (Q8NGN3 1-311): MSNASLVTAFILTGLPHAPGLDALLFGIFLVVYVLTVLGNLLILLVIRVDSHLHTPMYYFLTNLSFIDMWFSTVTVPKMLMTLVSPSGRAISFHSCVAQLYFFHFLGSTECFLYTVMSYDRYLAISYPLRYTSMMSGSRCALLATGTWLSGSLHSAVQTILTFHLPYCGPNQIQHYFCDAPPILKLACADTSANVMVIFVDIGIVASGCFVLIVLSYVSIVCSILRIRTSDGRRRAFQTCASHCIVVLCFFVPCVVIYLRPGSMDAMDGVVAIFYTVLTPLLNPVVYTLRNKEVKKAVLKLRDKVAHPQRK
Excerpt: Genes encoding the human olfactory receptors OR10G4, OR4S2, OR5P3, OR2W1, and OR1A1 (which are as set forth in SEQ ID NOs: 1, 2, 3, 4, and 5, respectively) were cloned. Each gene was cloned by PCR using human genomic DNA female (G1521: Promega) as a template, based on the sequence information registered in GenBank. Each gene amplified by PCR was incorporated into a pENTR vector (Invitrogen) in accordance with the manual, and by utilizing the NotI/AscI site present on the pENTR vector, it was recombined to the NotI/AscI site produced downstream of a Flag-Rho tag sequence on a pME18S vector. […]
(§1) An olfactory receptor expressed in HEK293 cells conjugated with Gαs existing in the cells to activate adenylate cyclase, so as to increase the amount of cAMP in the cells. For the receptor response measurement in the present study, a luciferase reporter gene assay was applied, and an increase in the intracellular amount of cAMP was monitored as a luminescence value derived from a firefly luciferase gene (fluc2P-CRE-hygro). […]
The medium was removed from the culture produced in the above 3), and an odor substance solution was then added thereto. […] The activity of luciferase was measured using Dual-Glo™ luciferase assay system (Promega) in accordance with the operating manual of the product. […]

[2] = molecular target: T2, OR5AN1 (Homo sapiens, UniProt Q8NGI8); details: Patent Literature 1; cited from earlier work
T2 sequence (Q8NGI8 1-311): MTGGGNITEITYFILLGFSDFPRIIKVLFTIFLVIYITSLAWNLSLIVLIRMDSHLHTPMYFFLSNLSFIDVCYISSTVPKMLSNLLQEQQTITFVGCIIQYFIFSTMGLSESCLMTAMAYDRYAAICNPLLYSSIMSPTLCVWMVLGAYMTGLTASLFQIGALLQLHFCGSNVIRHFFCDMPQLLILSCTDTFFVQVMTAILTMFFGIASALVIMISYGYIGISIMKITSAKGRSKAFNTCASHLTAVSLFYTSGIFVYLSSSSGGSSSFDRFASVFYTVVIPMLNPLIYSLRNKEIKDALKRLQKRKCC

[3] = system: olfactory sensitivity; experiment: Sensory test: detection threshold concentration of odor substances before and after oral care; type: in vivo, human; details: for olfactory sensitivity (detection threshold concentration): 1 hour after oral care vs before oral care
Procedure: Olfactory sensitivity before and after oral care was evaluated according to a sensory test. The experimental scheme is shown in FIG. 6A, and is also described in detail below. The sensory test was carried out with 14 subjects. On the test day, the subjects were prohibited to eat and drink anything after getting up, and were also prohibited to do oral care including brushing of teeth. The test was started between 8:00 am to 9:30 am. First, exhaled breath was collected from the subjects. Subsequently, the detection threshold concentration of each odor substance was measured according to the sensory test. Thereafter, the subjects ate designated breakfast, and then performed oral care (the brushing of teeth using commercially available toothbrush and dentifrice for 5 minutes, and then, the washing of the mouth using commercially available mouth wash for 30 seconds). At individual time points of 10 minutes and 1 hour after the oral care, exhaled breath was collected from the subjects and the detection threshold concentration of each odor substance was measured.
1 mL of an odor substance solution placed in a vial bottle (Maruemu, No. 2) was used as an odor sample. As such odor substance solutions, a 20-step 2-fold dilution series was prepared regarding each of muscone, indole, and furfuryl mercaptan (highest concentrations: 1000 ppm, 1 mM, and 10 ppb, respectively). Mineral oil (Sigma-Aldrich) was used as a solvent in all cases. As a blank, a vial containing 1 mL of mineral oil was used.
A single test was carried out on two types of odor substance among muscone, indole, and furfuryl mercaptan. […] The test participants smelled the odors contained in the vials and tried to choose the vial containing an odor solution. The test was started with an odor sample having the third low concentration. When the subject’s selection was incorrect or the subject could not choose the vial even once, the same trial was carried out using an odor sample having one step higher concentration. When the subject’ selection was correct two times in a row, the same trial was carried out using an odor sample having one step lower concentration. When the subject’ selection was correct two times in a row using an odor sample with a new concentration, the subject was tested using an odor sample having further one step lower concentration. When the subject could not choose the correct vial even once, the subject was tested using an odor sample having one step higher concentration. Switching from a high concentration to a low concentration, and from a low concentration to a high concentration, was recorded 7 times in total, and the mean value of the concentrations measured 4 times in the second half was defined as a detection threshold concentration. The detection threshold concentrations of each odor substance before and after oral care were compared with each other according to the Wilcoxon signed-rank test, and the p value was calculated. The statistical analysis was carried out using R Software (Ver.3.6.0).

[4] = molecular target: T3, OR4S2 (Homo sapiens, UniProt Q8NH73); experiment: Luciferase reporter gene assay, response of OR4S2 to odor substances; type: cell-based; details: OR4S2-expressing HEK293 cells, luciferase fold increase, FIG. 4, 5, 9
T3 construct: Flag-Rho tag (N); expressed in transfected cells; host or cells: HEK293
T3 sequence (Q8NH73 1-311): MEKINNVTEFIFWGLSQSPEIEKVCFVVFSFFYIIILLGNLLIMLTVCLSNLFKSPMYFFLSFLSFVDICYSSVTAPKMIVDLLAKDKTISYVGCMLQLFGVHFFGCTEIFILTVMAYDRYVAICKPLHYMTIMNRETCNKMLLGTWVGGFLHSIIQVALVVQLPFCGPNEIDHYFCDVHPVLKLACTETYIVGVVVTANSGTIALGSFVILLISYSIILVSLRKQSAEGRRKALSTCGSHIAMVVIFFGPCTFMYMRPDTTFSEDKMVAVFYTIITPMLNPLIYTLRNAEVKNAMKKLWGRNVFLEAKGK
Excerpt: Genes encoding the human olfactory receptors OR10G4, OR4S2, OR5P3, OR2W1, and OR1A1 (which are as set forth in SEQ ID NOs: 1, 2, 3, 4, and 5, respectively) were cloned. Each gene was cloned by PCR using human genomic DNA female (G1521: Promega) as a template, based on the sequence information registered in GenBank. Each gene amplified by PCR was incorporated into a pENTR vector (Invitrogen) in accordance with the manual, and by utilizing the NotI/AscI site present on the pENTR vector, it was recombined to the NotI/AscI site produced downstream of a Flag-Rho tag sequence on a pME18S vector.
HEK293 cells in which any one of the above-described human olfactory receptors was allowed to express, were produced. A reaction solution having the composition shown in Table 2 was prepared, and was then left to stand in a clean bench for 15 minutes. The resultant was added into each well of a 96-well plate (BD). […]
as §1
The medium was removed from the culture produced in the above 3), and an odor substance solution was then added thereto. […] The activity of luciferase was measured using Dual-Glo™ luciferase assay system (Promega) in accordance with the operating manual of the product. The value fLuc/hRluc was calculated by dividing the value of luminescence derived from firefly luciferase by the value of luminescence derived from Renilla luciferase. A fold increase was calculated by dividing the value fLuc/hRluc induced by cells stimulated with an odor substance, by the value fLuc/hRluc induced by cells not stimulated with an odor substance, and the obtained value was used as an indicator of response intensity. […]

[5] = system: olfactory sensitivity to 3M3SH; experiment: Sensory test: odor sensory intensity to 3M3SH with 3M3SH applied to armpit portions of clothes; type: in vivo, human; details: fifteen minutes after application of 3M3SH onto the armpit portions, two subjects, FIG. 3
Procedure: 3M3SH was used as an underarm odor-causing substance. A sensory evaluation sample was prepared by adding one cotton ball (Hakujuji Co., Ltd., No. 10) into a 13.5-mL vial bottle (Maruemu No. 5), and then adding 10 µL of a 3M3SH solution with each diluted concentration thereto. For the 3M3SH solution, mineral oil (Sigma-Aldrich) was used as a solvent, and the concentrations of the solution were set to be 0 µM, 1 µM, 3 µM, 10 µM, 30 µM, 100 µM, and 300 µM.
The sensory test was carried out with two subjects. The subjects wore a commercially available white cloth (material: 65% polyester and 35% cotton). The subjects first smelled the above-described samples in the order from a low concentration sample to a high concentration sample, and odor sensory intensity which the subjects felt was then evaluated. The evaluation was carried out in 9 stages from “0: Not felt” to “4: Unbearably strongly felt,” at intervals of 0.5. Thereafter, the 3M3SH ethanol solution (3 µg/mL) was added in an amount of 10 µL each onto both of the armpit portions of each subject’ clothes (white clothes). Fifteen minutes after addition of this solution, the above-described sensory evaluation was carried out again. […]

COc1ccccc1O [guaiacol, Guaiacol]
response of OR10G4 to odor substances [1]: activate OR10G4

C[C@@H]1CCCCCCCCCCCCC(=O)C1 [muscone, Muscone]
recognition by OR5AN1 [2]: recognized, mainly mediated by OR5AN1 | olfactory sensitivity (detection threshold concentration) ([3]; FIG. 7A): no statistically significant difference | response of OR4S2 to odor substances [4]: is not activated by

SCc1ccco1 [furfuryl mercaptan, Furfuryl mercaptan]
olfactory sensitivity (detection threshold concentration) ([3]; FIG. 7A): statistically significantly improved | response of OR4S2 to odor substances [4]: is activated by

CCCC(C)(S)CCO (stereo not drawn) [3M3SH, 3-Methyl-3-sulfanylhexan-1-ol]
odor intensity of 3M3SH felt from the sample [5]: reduced

c1ccc2[nH]ccc2c1 [indole, Indole]
detection threshold concentration relative to before oral care ([3]; 10 minutes after the oral care, FIG. 7B): 1/16 | olfactory sensitivity (detection threshold concentration) ([3]; FIG. 7A): statistically significantly improved | detection threshold concentration relative to before oral care ([3]; 1 hour after the oral care, on average, FIG. 7A): ⅛ | response of OR4S2 to odor substances [4]: activate OR4S2

CCOc1cc(C=O)ccc1O [ethyl vanillin, Ethyl vanillin]
response of OR10G4 to odor substances [1]: activate OR10G4
